Assay results: patent US9095573B2, “Method of biasing implanted human neural stem cells away from differentiation into glial cells by (+)phenserine to modulate the concentration of soluble βAPP in tissue or CSF” (priority 2005, dated 2015)

What was measured:
[1] = system: APP mRNA; assay: Real time RT-PCR analysis of APP gene expression in cortical and hippocampal tissues; format: in vivo; settings: both APP23 and wild-type mice
Protocol: (§1) Animals were subsequently divided into two groups that were either sacrificed following 14 days treatment (n=17 APP23 and n=13 wild-type, respectively) or received transplantation of HSNC into the lateral ventricle (n=13 APP23 mice and n=12 wild-type, respectively). […] Brains were removed, dissected into the hippocampus and cortex, and tissue samples were maintained on dry ice and stored at −80° C. until Western blotting and PCR experiments were performed. For the group of transplanted animals, these were transcardially perfused with PBS and 4% paraformaldehyde (pH 7.4). Brains were removed and post-fixed for 8-12 h in 4% paraformaldehyde, and cryoprotected in 20% sucrose-PBS overnight. […]
Total RNA from hippocampal and cortical tissues from each animal treated with either (+)-phenserine or saline was isolated with Trizol reagent (Invitrogen) according to the manufacturer's protocol. […] Relative quantification with Real-time PCR was determined using the MyiQ Real-Time PCR Detection System Software (Bio-Rad), and reactions were performed in a thermal iCycler using the Bio-Rad MyiQ IQ SYBR Green Supermix (Bio-Rad) according to the following conditions; denaturation of cDNA for 5 min at 94° C.; amplification (40 cycles) for 30 sec at 94° C., annealing at 56° C. for 30 sec, and extension at 72° C. for 30 sec, with a final extension at 72° C. for 5 min. […]

[2] = system: transplanted human neural stem cells (HNSCs); assay: Glial differentiation of transplanted HNSCs (BrdU+/GFAP+ cell counts, fluorescent immunohistochemistry); format: in vivo, APP23 and wild-type mice; settings: hippocampus of wild-type mice; 6 weeks after HNSC transplantation; 25 mg/kg
Protocol: (§2) HNSCs originally isolated from fetal cortical tissue were purchased from BioWhittaker (Walkersville, Md.) and the cells were expanded and passaged in a serum-free culture medium, as described in detail previously (Brannen and Sugaya, 2000). Briefly, HNSCs were cultured in 20 ml serum-free supplemented growth medium consisting of Ham's F12/DMEM (Gibco, Burlington, ON), EGF (20 ng/ml, R & D Systems), FGF (20 ng/ml, R & D Systems, Minneapolis, Minn.), B27 (1:50, Gibco), heparin (5 μg/ml, Sigma, St. Louis, Mo.) and antibiotic-antimycotic mixure (1:100, Gibco) at 37° C. in a 5% humidified incubation chamber (Brannen and Sugaya, 2000). Prior to transplantation, HNSCs were incubated with 3 μM bromo-deoxyuridine (BrdU, Sigma) for 48 hr to label cell nuclei to distinguish them from the host cells.
as §1, with “7.4).” for “7.4). Brains were removed and post-fixed for 8-12 h in 4% paraformaldehyde, and cryoprotected in 20% sucrose-PBS overnight.”

[3] = system: transplanted human neural stem cells (HNSCs); assay: Neuronal differentiation of transplanted HNSCs (BrdU+/β-III tubulin+ cell counts, fluorescent immunohistochemistry); format: in vivo, APP23 and wild-type mice; settings: wild-type mice, CA1 hippocampal region only; p<0.05; 25 mg/kg
Protocol: as §2
as §1, with “7.4).” for “7.4). Brains were removed and post-fixed for 8-12 h in 4% paraformaldehyde, and cryoprotected in 20% sucrose-PBS overnight.”

[4] = system: cholinesterase; settings: Greig et al., U.S. Patent Pub. 2004/0024043 and 2004/0138282; cited from earlier work

## (+)-phenserine
[1]
  change in APP gene expression: no significant changes
[2]
  difference in number of BrdU+/GFAP+ double immuno-positive cells: No significant differences
[3]
  increase in number of BrdU+/β-III tubulin+ cells: 40%
[4]
  cholinesterase activity: lacks cholinesterase activity
